# Experimental data: ChEMBL document CHEMBL4706559, “New indolylarylsulfone non-nucleoside reverse transcriptase inhibitors show low nanomolar inhibition of single and double HIV-1 mutant strains” (Eur J Med Chem, 2020)
# How the values were obtained:
# [1] = tested on: Human immunodeficiency virus 1; assay: Antiviral activity against HIV1 harboring RT Y181C mutant infected in human MT4 cells assessed as protection against virus-induced cytopathic effect by MTT assay; type: functional, organism-based; settings: Human immunodeficiency virus 1, MT4
# [2] = biological target: T1, Human immunodeficiency virus type 1 reverse transcriptase (Human immunodeficiency virus 1, UniProt Q72547); assay: Binding affinity to wild type HIV-1 p66/p51 reverse transcriptase/nucleic acid/dTTP ternary complex using poly(rA)/oligo(dT) as templates in presence of [3H]dTTP
# [3] = biological target: Human immunodeficiency virus type 1 reverse transcriptase (Human immunodeficiency virus 1) (UniProt Q72547); assay: Ratio of Kon of wild type HIV-1 p66/p51 reverse transcriptase/nucleic acid binary complex to Kon of free form of wild type HIV-1 p66/p51 reverse transcriptase using poly(rA)/oligo(dT) as templates in presence of [3H]dTTP
# [4] = tested on: Human immunodeficiency virus 1; assay: Inhibition of HIV1 p66/p51 reverse transcriptase K103N/Y181C double mutant assessed as apparent Vmax at 150 nM using 10 to 500 uM poly(rA)/oligo(dT) as templates in presence of fixed concentration of [3H]dTTP by Michaelis-Menten analysis (reference value: 12 +/- 1%)
# [5] = tested on: Human immunodeficiency virus 1; assay: Ratio of Kon of HIV-1 p66/p51 reverse transcriptase K103N/Y181C double mutant/nucleic acid/dTTP ternary complex to Kon of HIV-1 p66/p51 reverse transcriptase/nucleic acid binary complex using poly(rA)/oligo(dT) as templates in presence of [3H]dTTP
# [6] = tested on: Human immunodeficiency virus 1; assay: Ratio of Koff of HIV-1 p66/p51 reverse transcriptase K103N/Y181C double mutant/nucleic acid/dTTP ternary complex to Koff of free form of HIV-1 p66/p51 reverse transcriptase using poly(rA)/oligo(dT) as templates in presence of [3H]dTTP
# [7] = biological target: Human immunodeficiency virus type 1 reverse transcriptase (Human immunodeficiency virus 1) (UniProt Q72547); assay: Inhibition of wild type HIV1 p66/p51 reverse transcriptase assessed as apparent Vmax at 30 nM using fixed concentration of poly(rA)/oligo(dT) as templates in presence of 2 to 100 uM of [3H]dTTP by Michaelis-Menten analysis (reference value: 9.7 +/- 12%)
# [8] = biological target: Human immunodeficiency virus type 1 reverse transcriptase (Human immunodeficiency virus 1) (UniProt Q72547); assay: Inhibition of wild type HIV1 p66/p51 reverse transcriptase assessed as apparent Vmax at 90 nM using fixed concentration of poly(rA)/oligo(dT) as templates in presence of 2 to 100 uM of [3H]dTTP by Michaelis-Menten analysis (reference value: 9.7 +/- 12%)
# [9] = Inhibition of RNA-dependent DNA polymerase activity of recombinant HIV-1 p66/p51 reverse transcriptase Y188L mutant assessed as inhibition of [3H]dTTP incorporation using poly(rA)/oligo(dT) as templates incubated for 15 mins by MicroBeta scintillation counting method; parameters: species or system Human immunodeficiency virus 1
# [10] = tested on: Human immunodeficiency virus 1; assay: Synergistic inhibition of HIV-1 p66/p51 reverse transcriptase K103N/Y181C double mutant assessed as combination index using poly(rA)/oligo(dT) as templates in presence of [3H]dTTP preincubated enzyme with nucleic acid followed by addition of AZTTP and subsequent incubation with compound and dTTP
# [11] = tested on: Human immunodeficiency virus 1; assay: Antiviral activity against HIV-1 NL4-3 infected in human MT-4 cells assessed as virus induced cytopathic effect by MTT assay; type: functional, organism-based; settings: Human immunodeficiency virus 1, NL4-3, MT4
# [12] = Binding affinity to HIV-1 p66/p51 reverse transcriptase K103N/Y181C double mutant/nucleic acid binary complex using poly(rA)/oligo(dT) as templates in presence of [3H]dTTP; parameters: species or system Human immunodeficiency virus 1
# [13] = tested on: Human immunodeficiency virus 1; assay: Ratio of Koff of HIV-1 p66/p51 reverse transcriptase K103N/Y181C double mutant/nucleic acid/dTTP ternary complex to Koff of HIV-1 p66/p51 reverse transcriptase/nucleic acid binary complex using poly(rA)/oligo(dT) as templates in presence of [3H]dTTP
# [14] = biological target: T1, Human immunodeficiency virus type 1 reverse transcriptase; assay: Binding affinity to wild type HIV-1 p66/p51 reverse transcriptase/nucleic acid binary complex using poly(rA)/oligo(dT) as templates in presence of [3H]dTTP
# [15] = tested on: Human immunodeficiency virus 1; assay: Binding affinity to HIV-1 p66/p51 reverse transcriptase K103N/Y181C double mutant/nucleic acid binary complex assessed as dissociation constant using poly(rA)/oligo(dT) as templates in presence of [3H]dTTP
# [16] = tested on: Human immunodeficiency virus 1; assay: Antiviral activity against HIV1 harboring RT Y188L mutant infected in human MT4 cells assessed as protection against virus-induced cytopathic effect by MTT assay; type: functional, organism-based; settings: Human immunodeficiency virus 1, MT4
# [17] = tested on: Human immunodeficiency virus 1; assay: Inhibition of HIV1 p66/p51 reverse transcriptase K103N/Y181C double mutant assessed as apparent Km of substrate at 150 nM using fixed concentration of poly(rA)/oligo(dT) as templates in presence of 2 to 100 uM of [3H]dTTP by Michaelis-Menten analysis (reference value: 9.2 +/- 1.4 uM)
# [18] = tested on: Human immunodeficiency virus 1; assay: Antiviral activity against HIV1 harboring RT K103N mutant infected in human MT4 cells assessed as protection against virus-induced cytopathic effect by MTT assay; type: functional, organism-based; settings: Human immunodeficiency virus 1, MT4
# [19] = tested on: Human immunodeficiency virus 1; assay: Synergistic inhibition of HIV-1 p66/p51 reverse transcriptase K103N/Y181C double mutant assessed as combination index using poly(rA)/oligo(dT) as templates in presence of [3H]dTTP preincubated with enzyme and AZTTP followed by substrate addition; type: functional
# [20] = tested on: Human immunodeficiency virus 1; assay: Binding affinity to free form of HIV-1 p66/p51 reverse transcriptase K103N/Y181C double mutant assessed as dissociation constant using poly(rA)/oligo(dT) as templates in presence of [3H]dTTP
# [21] = tested on: Human immunodeficiency virus 1; assay: Inhibition of HIV1 p66/p51 reverse transcriptase K103N/Y181C double mutant assessed as apparent Vmax at 300 nM using 10 to 500 uM poly(rA)/oligo(dT) as templates in presence of fixed concentration of [3H]dTTP by Michaelis-Menten analysis (reference value: 12 +/- 1%)
# [22] = biological target: T1, Human immunodeficiency virus type 1 reverse transcriptase; assay: Binding affinity to free form of wild type HIV-1 p66/p51 reverse transcriptase using poly(rA)/oligo(dT) as templates in presence of [3H]dTTP
# [23] = tested on: Human immunodeficiency virus 1; assay: Synergistic inhibition of wild type HIV-1 p66/p51 reverse transcriptase assessed as combination index using poly(rA)/oligo(dT) as templates in presence of [3H]dTTP preincubated enzyme with nucleic acid followed by addition of AZTTP and subsequent incubation with compound and dTTP
# [24] = biological target: Human immunodeficiency virus type 1 reverse transcriptase (Human immunodeficiency virus 1) (UniProt Q72547); assay: Inhibition of wild type HIV1 p66/p51 reverse transcriptase assessed as apparent Vmax at 225 nM using fixed concentration of poly(rA)/oligo(dT) as templates in presence of 2 to 100 uM of [3H]dTTP by Michaelis-Menten analysis (reference value: 9.7 +/- 12%)
# [25] = biological target: Human immunodeficiency virus type 1 reverse transcriptase (Human immunodeficiency virus 1) (UniProt Q72547); assay: Binding affinity to free form of wild type HIV-1 p66/p51 reverse transcriptase assessed as association constant using poly(rA)/oligo(dT) as templates in presence of [3H]dTTP
# [26] = tested on: Human immunodeficiency virus 1; assay: Antiviral activity against wild type HIV-1 P1 infected in human C8166 cells assessed as reduction in viral p24 antigen production at 25 nM; type: functional; settings: Human immunodeficiency virus 1, P1, C8166
compound,measurement,setting,value
Cc1cc(C)cc(S(=O)(=O)c2c(C(=O)NCc3ccccc3O)[nH]c3ccc(Cl)cc23)c1,EC50,[1],< 0.7 nM
same,Ki,[2],28 nM
same,Ratio,[3],7
same,Vmax(app),[4],6%
same,Ratio,[5],4
same,Ratio,[6],4
same,Vmax(app),[7],5.6%
same,Vmax(app),[8],2.9%
same,IC50,[9],61 nM
same,CI,[10],0.6
same,EC50,[11],< 0.7 nM
same,Ki,[12],86 nM
same,Ratio,[13],4
same,Ki,[14],36 nM
same,K,[15],8 10^-3/s
same,EC50,[16],21.3 nM
same,Km,[17],2.2 µM
same,EC50,[18],< 0.7 nM
same,CI,[19],0.81
same,K,[20],14 10^-3/s
same,Vmax(app),[21],3.2%
same,Ki,[22],31 nM
same,CI,[23],0.75
same,Vmax(app),[24],0.9%
same,K,[25],13 10^-5/nM/s
same,inhibition at 0.025 µM,[26],100%
